Results reported in patent publication US8946162B2, “Treatment of tumors” (priority 2008, dated 2015).

Key:
Ang II [1] = test: Determination of specific ACE2 activity (conversion of Ang II to Ang 1-7, RP-HPLC); assay type: biochemical
Method: Furthermore, both Ang II and Ang 1-7 peaks were recognised and integrated in the chromatograms. The peptide concentrations were determined using calibration curves. Enzymatic conversion and specific enzyme activity were also determined.

human tumour cell line = test: Suppression of tumour cell growth (cell count in haemocytometer); assay type: cell-based; details: up to day 17; for cell growth (cell count): culture medium RPMI 1640 10% FCS supplemented with the substance alone (100 nM peptide or 20 μg/ml sACE2), versus control medium
Method: A human tumour cell line was sowed at a density of 2.5×10^4 cells/ml in 200 μl RPMI 1640 in 10% FCS in 96-well plates and incubated at 37° C. and 5% CO2. The influence of various active components of the RAS were evaluated using the following test systems. All the analyses were carried out as triple determinations (sACE2=soluble ACE2 without C-terminal membrane domain): • Condition A. Culture medium RPMI 1640 with 10% FCS as control • Condition B. Culture medium supplemented with 100 nM Ang II • Condition C. Culture medium supplemented with 100 nM Ang 1-7 • Condition D. Culture medium supplemented with 20 μg/ml sACE2 • Condition E. Culture medium supplemented with 20 μg/ml sACE2 and […]
Every day 100 μl of medium was removed and replaced by the same volume of fresh specific medium. The cell count was determined on days 2, 3, 6, 8, 10, 13, 15 and 17 by multiple counting in a haemocytometer. A separately prepared test plate was used for each determination.

[2] = Terminal half-life measured in various species; assay type: in vivo; details: including rhesus monkeys
Source text: ACE2 is metabolised slowly due to the large, highly branched and complex sugar moiety.

[3] = Aggregation of the ACE2 preparation in physiological buffer; assay type: physicochemical; details: concentrated protein solution in physiological buffer
Source text: The dimer-ACE2 preparation produced according to Example 1 is present as a stable, highly pure and concentrated protein solution in physiological buffer and can be stored and administered […].
The ACE2 preparation also has full enzyme activity.

Ang II [4] = details: reaction conditions identical; material expressed in insect cells; cited from earlier work
[5] = 250 ng/ml ACE2, 80 μM Ang II, pH 6.5, 18 minutes at 37° C.

In the case of “ACE2 preparation produced according to Example 1: Soluble section of human ACE2 expressed in CHO, fully N-glycosylated, obtained as a dimer with two Zn2+”, the “catalytic activity kkat based on Ang II conversion” value (Ang II [1]; [5]) is reported as 8.0 ± 0.3 s⁻¹, the “catalytic activity kkat in relation to Ang 1-7 conversion” value (Ang II [1]; [5]) is reported as 8.8 ± 0.2 s⁻¹ and the “higher activity than the figures of Vickers et al.” value (Ang II [1]; present preparation versus Vickers material) is reported as 240%. The “cell growth (cell count)” value (human tumour cell line) was “marginally increased growth”, the “cell growth (cell count) in the presence of Ang II” value (human tumour cell line; culture medium supplemented with 20 μg/ml sACE2 and […]) was “reduced cell growth” and the terminal half-life [2] was “at least 10.5 hours”. The aggregation to multimers [3] was “does not exhibit any aggregation to multimers”.

In the case of “ACE2 (Vickers et al.): ACE2 of Vickers et al., expressed in insect cells, same amino acid sequence, glycosylated to a considerably lesser extent”, the “catalytic ACE2 activity published by Vickers et al.” value (Ang II [4]) is given as 3.5 s⁻¹.

With “Ang 1-7: Effector peptide of the RAS, antagonist of Ang II, formed from Ang II by ACE2 (DRVYIHP; Angiotensin 1-7; UniProt P01019 25-31, looked up) [reference compound]” the “cell growth (cell count)” value (human tumour cell line) was “reduced cell growth”.

With “Asp-Arg-Val-Tyr-Ile-His-Pro-Phe (DRVYIHPF; printed: Asp-Arg-Val-Tyr-Ile-His-Pro-Phe) [Ang II, reference compound]” the “cell growth (cell count)” value (human tumour cell line) was “distinctly increased cell growth”.
